# Earlier results in US20220184087A1, “METHODS AND COMPOSITIONS RELATING TO TREATMENT OF CANCER” (The Penn State Research Foundation, priority 2019, published 2022).
# Key:
# [1] = test system: murine head and neck cancer cells
# [2] = test system: human head and neck cancer cells
# MDM4 = target: T1, MDM4 (Homo sapiens, UniProt O15151); settings: within p53-binding pocket
# T1 sequence (O15151 1-490): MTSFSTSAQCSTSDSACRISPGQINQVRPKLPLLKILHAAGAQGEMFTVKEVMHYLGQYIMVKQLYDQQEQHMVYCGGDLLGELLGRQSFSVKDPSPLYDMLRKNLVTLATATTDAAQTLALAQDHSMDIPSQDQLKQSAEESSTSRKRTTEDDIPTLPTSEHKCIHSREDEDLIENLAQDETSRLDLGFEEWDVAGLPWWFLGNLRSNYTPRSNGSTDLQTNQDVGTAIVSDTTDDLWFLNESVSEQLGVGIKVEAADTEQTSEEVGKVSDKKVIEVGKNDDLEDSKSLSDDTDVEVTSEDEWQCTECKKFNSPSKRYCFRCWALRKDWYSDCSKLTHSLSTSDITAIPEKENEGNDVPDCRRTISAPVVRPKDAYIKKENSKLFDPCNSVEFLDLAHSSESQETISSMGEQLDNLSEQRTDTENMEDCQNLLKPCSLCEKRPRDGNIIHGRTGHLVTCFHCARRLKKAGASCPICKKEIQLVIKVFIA
# melanoma = melanoma patients
molecule,measurement,setting,value
"C=CCn1c(=O)c2cnc(Nc3ccc(N4CCN(C)CC4)cc3)nc2n1-c1cccc(C(C)(C)O)n1 [MK1775, 2-allyl-1-(6-(2-hydroxypropan-2-yl)pyridin-2-yl)-6-((4-(4-methylpiperazin-1-yl)phenyl)amino)-1H-pyrazolo[3,4-d]pyrimidin-3(2H)-one]",sensitization to NK lysis,[1],sensitized
same,sensitization to NK lysis,[2],sensitized
CCOc1cc(/C=C2/C(=O)N(c3ccccc3)N=C2C)cc(Cl)c1OCC(=O)OC [SJ-172550],binding affinity to MDM4,MDM4,high affinity
ipilimumab: anti-CTLA4 immune checkpoint inhibitor antibody,median PFS,melanoma,2.9 months
nivolumab: anti-PD-1 immune checkpoint inhibitor antibody,median PFS,melanoma,6.9 months
